Source: patent US20160052955A1 (SLOAN-KETTERING INSTITUTE FOR CANCER RESEARCH, priority 2013, published 2016)
pIC50: −log10 of the molar value.

Molecular target: SETDB1Full-length (Homo sapiens, UniProt Q15047)
Assay: Filter-paper methyltransferase assay, SETDB1
Format: biochemical

`Nc1ncnc2c1ncn2[C@@H]1O[C@H](C[C@@H](N)CC[C@H](N)C(=O)O)[C@@H](O)[C@H]1O` [Sinefungin, sinefungin, reference compound] gave a pIC50 of 5.10.
